Assay results from US11000033B2, “Ketone or oxime compound, and herbicide” (NISSAN CHEMICAL CORPORATION, priority 2014, dated 2021).

Key:
Assay type in all cases: in vivo
rice = assay: Test Example 4: effect on crop by soil treatment (symbol b)
Text: (§1) Herbicidal Effect Test by Soil Treatment
(§2) Sterilized diluvial soil was placed in a plastic box having a length of 21 cm, a width of 13 cm, and a depth of 7 cm. Each of the seeds of Digitaria ciliaris, Setaria viridis, Echinochloa crus-galli var. crus-galli, Avena fatua, Alopecurus myosuroides, Lolium multiflorum Lam., Apera spica-venti, Abutilon theophrasti, Amaranthus retroflexus, Chenopodium album, Stellaria media, Galium spurium, Veronica persica, corn, soybean, rice, wheat, beet, and rapeseed was sowed in a spot-like manner and was covered with the soil of a thickness of about 1.5 cm. […] The plastic box was placed in a greenhouse of 25° C. to 30° C. to grow plant.

rapeseed [1] = assay: Test Example 4: effect on crop by soil treatment (symbol g)
Text: as §1, §2

Amaranthus retroflexus [2] = assay: Test Example 5: herbicidal effect by foliage application, plastic box (symbol N); conditions: 320 g/ha, 3 weeks after application
Procedure, shortened: (§3)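 After sowing into sterilized diluvial soil and growing two weeks under glass at 25° C. to 30° C., seedlings receive a uniform foliar spray of diluted emulsion. Damage is judged visually three weeks on.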

[3] = test system: directly sowed rice plant; assay: Test Example 3: effect on crop by foliage application, Wagner pot (symbol b); conditions: application herbicide amount 320 g/ha; for b (directly sowed rice plant) effect on crop grade: Table 24
Procedure, shortened: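 Greenhouse culture at 25–30 °C of seeded rice, Cyperus difformis, Leptochloa chinensis and Echinochloa crus-galli var. crus-galli, in alluvial soil held under 0.1–0.5 cm of water in a Wagner pot.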

Amaranthus retroflexus [4] = assay: Test Example 4: herbicidal effect by soil treatment (symbol N); conditions: application herbicide amount 320 g/ha
Text: as §1
(§4) Sterilized diluvial soil was placed in a plastic box having a length of 21 cm, a width of 13 cm, and a depth of 7 cm. Each of the seeds of Digitaria ciliaris, Setaria viridis, Echinochloa crus-galli var. crus-galli, Avena fatua, Alopecurus myosuroides, Lolium multiflorum Lam., Apera spica-venti, Abutilon theophrasti, Amaranthus retroflexus, Chenopodium album, Stellaria media, Galium spurium, Veronica persica, corn, soybean, rice, wheat, beet, and rapeseed was sowed in a spot-like manner and was covered with the soil of a thickness of about 1.5 cm. Subsequently, the emulsion agent of the compound present invention prepared in accordance with Formulation Example 2 was diluted with water so as to be a predetermined herbicide amount and the diluted emulsion agent was uniformly applied to the surface of the soil with a small-size spray. The plastic box was placed in a greenhouse of 25° C. to 30° C. to grow plant. 3 weeks later from the herbicide application, the effect to each plant was investigated in accordance with the criteria of Test Example 1.

Cyperus difformis = assay: Test Example 3: herbicidal effect by foliage application, Wagner pot (symbol E); conditions: application herbicide amount 320 g/ha; for E herbicidal effect grade: Table 24
Procedure, shortened: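 Plants sown in submerged alluvial soil (water depth 0.1–0.5 cm) in a 25–30 °C greenhouse and grown 14 days. An emulsion of the compound diluted in water to a set herbicide amount was sprayed uniformly on foliage. Effect on each plant scored 3 weeks after application.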

rapeseed [5] = assay: Test Example 5: effect on crop by foliage application, plastic box (symbol g); conditions: 320 g/ha, 3 weeks after application
Procedure, shortened: (§5)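 Crop and weed seeds sown in spots in sterilized diluvial soil in plastic boxes and covered with about 1.5 cm soil. Plants raised in a greenhouse at 25° C. to 30° C. for foliar application.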

[6] = test system: Echinochloa oryzacola Vasing.; assay: Test Example 1: herbicidal activity, application before weed generation in submerged conditions (symbol A); conditions: application herbicide amount 320 g/ha
Procedure, shortened: (§6)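 Flooded alluvial soil (4 cm water) was mixed-sown with the three weed species, and 2.5-leaf rice seedlings were transplanted. On sowing day, a water-diluted emulsion at a predetermined rate was applied to the water surface. After 3 weeks in a 25–30 °C greenhouse, effect was scored 0–5.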

beet = assay: Test Example 5: effect on crop by foliage application, plastic box (symbol f); conditions: 320 g/ha, 3 weeks after application
Procedure, shortened: as §5

Monochoria vaginalis = assay: Test Example 1: herbicidal activity, application before weed generation in submerged conditions (symbol C); conditions: application herbicide amount 320 g/ha
Procedure, shortened: as §6

[7] = test system: Echinochloa crus-galli var. crus-galli; assay: Test Example 5: herbicidal effect by foliage application, plastic box (symbol H); conditions: 320 g/ha, 3 weeks after application
Procedure, shortened: as §3

[8] = test system: Echinochloa crus-galli var. crus-galli; assay: Test Example 4: herbicidal effect by soil treatment (symbol H)
Text: as §1, §4

Setaria viridis = assay: Test Example 5: herbicidal effect by foliage application, plastic box (symbol G); conditions: 320 g/ha, 3 weeks after application
Procedure, shortened: as §3

corn = assay: Test Example 4: effect on crop by soil treatment (symbol c)
Text: as §1, §2

Scirpus juncoides = assay: Test Example 1: herbicidal activity, application before weed generation in submerged conditions (symbol B); conditions: application herbicide amount 320 g/ha
Procedure, shortened: as §6

Stellaria media = assay: Test Example 4: herbicidal effect by soil treatment (symbol P); conditions: 320 g/ha
Text: as §1, §4

[9] = application herbicide amount 320 g/ha

| Compound | N: Amaranthus retroflexus, herbicidal effect grade (Amaranthus retroflexus [2]) | effect on crop b (directly sowed rice plant), grade 0-5 [3] | g: rapeseed, effect on crop grade (rapeseed [5]) | Herbicidal effect grade, A: Echinochloa oryzacola Vasing. [6] | f: beet, effect on crop grade (beet) | Herbicidal effect grade, C: Monochoria vaginalis (Monochoria vaginalis) | H: Echinochloa crus-galli var. crus-galli, herbicidal effect grade [7] | G: Setaria viridis, herbicidal effect grade (Setaria viridis) | Herbicidal effect grade, B: Scirpus juncoides (Scirpus juncoides) | Effect on crop grade, b: directly sowed rice plant (rice; [9]) | Effect on crop grade, g: rapeseed (rapeseed [1]; [9]) | b (directly sowed rice plant) effect on crop grade [3] | Herbicidal effect grade, N: Amaranthus retroflexus (Amaranthus retroflexus [4]) | E herbicidal effect grade (Cyperus difformis) | A (Echinochloa oryzacola Vasing.) herbicidal effect grade [6] | C (Monochoria vaginalis) herbicidal effect grade (Monochoria vaginalis) | Herbicidal effect grade, H: Echinochloa crus-galli var. crus-galli [8, 9] | Effect on crop grade, c: corn (corn; [9]) | B (Scirpus juncoides) herbicidal effect grade (Scirpus juncoides) | other results |
| --- | --- | --- | --- | --- | --- | --- | --- | --- | --- | --- | --- | --- | --- | --- | --- | --- | --- | --- | --- | --- |
| C=CCOC1=C(c2c(C)cc(C)cc2C)C(=O)C(CC(C)=NOC)C1 (stereo not shown) [1-007] | 0 (Herbicidal ratio of 5% or lower (almost no effect)) | 0 (Herbicidal ratio of 5% or lower (almost no effect)) | 0 (Herbicidal ratio of 5% or lower (almost no effect)) | 0 (Herbicidal ratio of 5% or lower (almost no effect)) | 0 (Herbicidal ratio of 5% or lower (almost no effect)) | 0 (Herbicidal ratio of 5% or lower (almost no effect)) | 0 (Herbicidal ratio of 5% or lower (almost no effect)) | 0 (Herbicidal ratio of 5% or lower (almost no effect)) | 0 (Herbicidal ratio of 5% or lower (almost no effect)) |  |  |  |  |  |  |  |  |  |  | b (directly sowed rice plant) effect on crop grade (rice; [9]): 0 (Herbicidal ratio of 5% or lower (almost no effect)); g (rapeseed) effect on crop grade (rapeseed [1]; [9]): 0 (Herbicidal ratio of 5% or lower (almost no effect)); N (Amaranthus retroflexus) herbicidal effect grade (Amaranthus retroflexus [4]): 0 (Herbicidal ratio of 5% or lower (almost no effect)); herbicidal effect on E, grade 0-5 (Cyperus difformis): 0 (Herbicidal ratio of 5% or lower (almost no effect)); H (Echinochloa crus-galli var. crus-galli) herbicidal effect grade [8, 9]: 0 (Herbicidal ratio of 5% or lower (almost no effect)); c (corn) effect on crop grade (corn; [9]): 0 (Herbicidal ratio of 5% or lower (almost no effect)) |
| CC(CC1CC(O)=C(c2c(C)cc(C)cc2C)C1=O)=NOCc1ccc(Cl)cc1 (stereo not shown) [1-137] |  | 5 (Herbicidal ratio of 90% or more (almost completely withered)) |  | 5 (Herbicidal ratio of 90% or more (almost completely withered)) |  | 5 (Herbicidal ratio of 90% or more (almost completely withered)) |  |  | 5 (Herbicidal ratio of 90% or more (almost completely withered)) |  |  |  |  |  |  |  |  |  |  | b: directly sowed rice plant, effect grade on crop (rice; 320 g/ha): 5 (Herbicidal ratio of 90% or more (almost completely withered)); g: rapeseed, effect grade on crop (rapeseed [1]; 320 g/ha): 0 (Herbicidal ratio of 5% or lower (almost no effect)); g: rapeseed, effect on crop (criteria 0-5) (rapeseed [5]): 4 (Herbicidal ratio of 70% or higher and lower than 90%); f: beet, effect on crop (criteria 0-5) (beet): 0 (Herbicidal ratio of 5% or lower (almost no effect)); H: Echinochloa crus-galli var. crus-galli, herbicidal effect (criteria 0-5) [7]: 5 (Herbicidal ratio of 90% or more (almost completely withered)); H: Echinochloa crus-galli var. crus-galli, herbicidal effect grade ([8]; 320 g/ha): 5 (Herbicidal ratio of 90% or more (almost completely withered)); P: Stellaria media, herbicidal effect grade (Stellaria media): 0 (Herbicidal ratio of 5% or lower (almost no effect)); G: Setaria viridis, herbicidal effect (criteria 0-5) (Setaria viridis): 5 (Herbicidal ratio of 90% or more (almost completely withered)); c: corn, effect grade on crop (corn; 320 g/ha): 0 (Herbicidal ratio of 5% or lower (almost no effect)) |
| Cc1cc(Br)cc(C)c1C1=C(O)CC(CC(=NOCC(F)(F)F)C2CC2)C1=O (stereo not shown) [9-009] | 0 (Herbicidal ratio of 5% or lower (almost no effect)) |  | 3 (Herbicidal ratio of 40% or higher and lower than 70%) |  | 0 (Herbicidal ratio of 5% or lower (almost no effect)) |  | 5 (Herbicidal ratio of 90% or more (almost completely withered)) | 5 (Herbicidal ratio of 90% or more (almost completely withered)) |  | 0 (Herbicidal ratio of 5% or lower (almost no effect)) | 0 (Herbicidal ratio of 5% or lower (almost no effect)) | 5 (Herbicidal ratio of 90% or more (almost completely withered)) | 0 (Herbicidal ratio of 5% or lower (almost no effect)) | 4 (Herbicidal ratio of 70% or higher and lower than 90%) | 4 (Herbicidal ratio of 70% or higher and lower than 90%) | 0 (Herbicidal ratio of 5% or lower (almost no effect)) | 0 (Herbicidal ratio of 5% or lower (almost no effect)) | 0 (Herbicidal ratio of 5% or lower (almost no effect)) | 0 (Herbicidal ratio of 5% or lower (almost no effect)) |  |
| COCCON=C(C)CC1CC(O)=C(c2c(C)cc(Br)cc2C)C1=O (stereo not shown) [9-017] | 0 (Herbicidal ratio of 5% or lower (almost no effect)) |  | 3 (Herbicidal ratio of 40% or higher and lower than 70%) |  | 0 (Herbicidal ratio of 5% or lower (almost no effect)) |  | 5 (Herbicidal ratio of 90% or more (almost completely withered)) | 5 (Herbicidal ratio of 90% or more (almost completely withered)) |  | 1 (Herbicidal ratio of 5% or higher and lower than 20%) | 0 (Herbicidal ratio of 5% or lower (almost no effect)) | 5 (Herbicidal ratio of 90% or more (almost completely withered)) | 0 (Herbicidal ratio of 5% or lower (almost no effect)) | 3 (Herbicidal ratio of 40% or higher and lower than 70%) | 4 (Herbicidal ratio of 70% or higher and lower than 90%) | 0 (Herbicidal ratio of 5% or lower (almost no effect)) | 0 (Herbicidal ratio of 5% or lower (almost no effect)) | 0 (Herbicidal ratio of 5% or lower (almost no effect)) | 2 (Herbicidal ratio of 20% or higher and lower than 40%) |  |
| COCCON=C(CC1CC(O)=C(c2c(C)cc(-n3cc(Cl)cn3)cc2C)C1=O)C1CC1 (stereo not shown) [9-020] | 5 (Herbicidal ratio of 90% or more (almost completely withered)) |  | 4 (Herbicidal ratio of 70% or higher and lower than 90%) |  | 0 (Herbicidal ratio of 5% or lower (almost no effect)) |  | 5 (Herbicidal ratio of 90% or more (almost completely withered)) | 5 (Herbicidal ratio of 90% or more (almost completely withered)) |  | 3 (Herbicidal ratio of 40% or higher and lower than 70%) | 0 (Herbicidal ratio of 5% or lower (almost no effect)) | 5 (Herbicidal ratio of 90% or more (almost completely withered)) | 0 (Herbicidal ratio of 5% or lower (almost no effect)) | 5 (Herbicidal ratio of 90% or more (almost completely withered)) | 5 (Herbicidal ratio of 90% or more (almost completely withered)) | 1 (Herbicidal ratio of 5% or higher and lower than 20%) | 0 (Herbicidal ratio of 5% or lower (almost no effect)) | 0 (Herbicidal ratio of 5% or lower (almost no effect)) | 4 (Herbicidal ratio of 70% or higher and lower than 90%) |  |
